The record followed here is ChEMBL document CHEMBL3784917, “Recent Progress in Histone Demethylase Inhibitors” (J Med Chem, 2016).

The target of assay [1] is T1, Lysine-specific demethylase 2A (Homo sapiens, UniProt Q9Y2K7).
T1 sequence (Q9Y2K7 whole entry): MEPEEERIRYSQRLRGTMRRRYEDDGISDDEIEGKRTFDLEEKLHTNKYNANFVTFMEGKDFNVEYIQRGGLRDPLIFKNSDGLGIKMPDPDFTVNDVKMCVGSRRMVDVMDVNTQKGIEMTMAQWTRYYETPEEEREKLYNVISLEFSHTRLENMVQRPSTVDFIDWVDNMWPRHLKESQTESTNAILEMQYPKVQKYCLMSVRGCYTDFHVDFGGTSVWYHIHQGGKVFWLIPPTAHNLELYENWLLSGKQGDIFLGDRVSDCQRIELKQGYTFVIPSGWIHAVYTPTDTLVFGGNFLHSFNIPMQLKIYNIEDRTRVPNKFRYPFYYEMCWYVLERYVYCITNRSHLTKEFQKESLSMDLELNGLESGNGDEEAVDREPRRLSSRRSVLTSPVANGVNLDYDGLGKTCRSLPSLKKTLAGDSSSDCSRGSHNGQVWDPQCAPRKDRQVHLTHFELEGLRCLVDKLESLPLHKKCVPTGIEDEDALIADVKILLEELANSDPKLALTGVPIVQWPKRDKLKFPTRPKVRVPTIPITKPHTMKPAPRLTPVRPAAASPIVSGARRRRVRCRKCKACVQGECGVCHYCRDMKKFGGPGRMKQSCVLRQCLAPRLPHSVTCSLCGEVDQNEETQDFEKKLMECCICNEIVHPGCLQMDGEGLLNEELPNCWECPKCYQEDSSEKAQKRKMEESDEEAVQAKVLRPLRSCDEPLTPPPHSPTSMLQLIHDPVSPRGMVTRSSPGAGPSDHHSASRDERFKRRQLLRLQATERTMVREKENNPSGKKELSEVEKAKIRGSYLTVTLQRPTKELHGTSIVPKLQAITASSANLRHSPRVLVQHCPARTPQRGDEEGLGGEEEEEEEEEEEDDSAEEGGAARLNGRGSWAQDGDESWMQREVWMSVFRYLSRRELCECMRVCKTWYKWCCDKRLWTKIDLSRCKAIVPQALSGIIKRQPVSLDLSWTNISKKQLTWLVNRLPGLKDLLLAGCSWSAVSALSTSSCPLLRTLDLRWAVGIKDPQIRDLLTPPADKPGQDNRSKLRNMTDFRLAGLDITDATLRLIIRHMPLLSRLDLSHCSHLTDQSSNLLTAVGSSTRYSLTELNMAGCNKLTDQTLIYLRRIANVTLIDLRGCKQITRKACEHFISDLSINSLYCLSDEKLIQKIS
The experiment in a line: Inhibition of KDM2A (unknown origin) after 24 hrs by alphascreen assay. Background: Bead proximity is the source of the signal in Alpha formats.

Assay [2] addresses T1, Lysine-specific demethylase 2A. Description: Inhibition of KDM2A (unknown origin) preincubated for 15 mins followed by histone substrate addition measured after 1 hr by alphascreen assay.
In assay [3] the target is T2, Lysine-specific demethylase 4A (Homo sapiens, UniProt O75164).
T2 sequence (O75164 whole entry): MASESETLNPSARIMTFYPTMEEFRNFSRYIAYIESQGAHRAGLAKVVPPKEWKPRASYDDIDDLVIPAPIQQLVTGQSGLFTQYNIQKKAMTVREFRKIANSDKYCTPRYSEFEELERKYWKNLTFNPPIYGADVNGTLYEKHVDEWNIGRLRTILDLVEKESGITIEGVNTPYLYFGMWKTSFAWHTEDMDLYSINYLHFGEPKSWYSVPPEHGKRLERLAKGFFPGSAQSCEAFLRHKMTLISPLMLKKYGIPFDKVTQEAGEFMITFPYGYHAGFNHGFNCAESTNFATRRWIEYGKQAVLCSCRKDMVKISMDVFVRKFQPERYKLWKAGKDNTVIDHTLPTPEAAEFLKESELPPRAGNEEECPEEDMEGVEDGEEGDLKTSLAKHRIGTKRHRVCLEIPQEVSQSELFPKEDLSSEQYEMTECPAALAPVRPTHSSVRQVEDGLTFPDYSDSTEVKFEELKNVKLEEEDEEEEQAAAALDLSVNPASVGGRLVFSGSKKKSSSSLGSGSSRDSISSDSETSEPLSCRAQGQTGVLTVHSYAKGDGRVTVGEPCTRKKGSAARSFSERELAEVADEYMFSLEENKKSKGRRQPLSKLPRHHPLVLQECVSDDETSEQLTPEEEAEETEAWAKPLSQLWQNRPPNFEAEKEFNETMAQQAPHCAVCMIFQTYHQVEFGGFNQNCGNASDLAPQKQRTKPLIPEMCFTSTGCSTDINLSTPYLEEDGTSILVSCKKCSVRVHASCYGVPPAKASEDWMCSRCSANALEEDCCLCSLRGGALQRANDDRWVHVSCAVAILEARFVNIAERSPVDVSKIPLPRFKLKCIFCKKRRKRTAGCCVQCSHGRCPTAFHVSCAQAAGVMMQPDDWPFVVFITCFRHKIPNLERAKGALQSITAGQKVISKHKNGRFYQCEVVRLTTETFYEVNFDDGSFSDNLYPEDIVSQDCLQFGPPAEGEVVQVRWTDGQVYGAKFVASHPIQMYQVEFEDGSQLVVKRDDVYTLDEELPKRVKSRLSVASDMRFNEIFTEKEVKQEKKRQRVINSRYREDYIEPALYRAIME
The experiment in a line: Inhibition of KDM4A in human MCF7 cells assessed as increase in H3K9me3 level after 24 hrs by DAPI staining based immunofuorescence assay. The class given is cell-based.

As to `CCCCCCCCOC(=O)c1ccc(O)c2ncccc12`, the IC50 (in general, the midpoint of a concentration-inhibition curve) in assay [1] is greater than 100 µM.
As for `Cc1ccsc1C(NC(=O)c1ccccc1)c1cc(Cl)c2cccnc2c1O` (racemic), it took 34 µM to reach half-maximal inhibition in assay [2] (IC50). In assay [3], the EC50 (as a rule, the concentration that produces a half-maximal response) was 12 µM.
